Literature values in PubChem BioAssay AID1259409 (Chemical Carcinogenesis Research Information System (CCRIS), 2018).

Tested on: rodent chemically induced tumor inhibition, incidence and multiplicity
Assay: CCRIS tumor inhibitor studies

COc1cc(C[C@@H](CO)[C@H](CO)Cc2ccc(O)c(OC)c2)ccc1O
tumour outcome (control, treated, inhibition, significance) (Carcinogen: 7,12-DIMETHYLBENZ[A]ANTHRACENE, 57-97-6, Dose [Inhibitor]: 0, 1.5 MG IN 1 ML OF DISTILLED WATER 1/D FOR 20 WK BEGINNING 1 WK POST CARCINOGEN DOSE (STUDY DURATION: 21 WK), Route [Inhibitor]: GAVAGE, Species: RAT, Strain/Sex: SPRAGUE-DAWLEY/FEMALE, Target Tissue: Type of Lesion: MAMMARY GLAND: TUMOR, Dose [Carcinogen]: 5 MG IN 1 ML CORN OIL ONCE, Promoter: NONE USED): 26/30 (87%), 23/30 (77%), 11%, not significant

Cc1cc2nc3c(=O)[nH]c(=O)nc-3n(C[C@H](O)[C@H](O)[C@H](O)CO)c2cc1C
tumour outcome (control, treated, inhibition, significance) (Carcinogen: 7,12-DIMETHYLBENZ[A]ANTHRACENE, 57-97-6, Dose [Inhibitor]: 2 MG IN DRINKING WATER DAILY STARTING 4 WK BEFORE CARCINOGEN TREATMENT AND CONTINUING FOR DURATION OF THE STUDY (STUDY D, Route [Inhibitor]: ORAL, Species: MOUSE, Strain/Sex: 101/MALE, FEMALE, Target Tissue: Type of Lesion: SKIN: PAPILLOMA, Dose [Carcinogen]: 225 UG IN 0.15 ML ACETONE ONCE, Promoter: CROTON OIL, 8001-28-3): 17/19 (89%), 19/19 (100%), -12%, not calculated | tumour outcome (control, treated, inhibition, significance) (Carcinogen: BENZO[A]PYRENE, 50-32-8, Dose [Inhibitor]: 0.2% IN DIET DAILY STARTING 4 WK BEFORE START OF CARCINOGEN TREATMENT AND CONTINUING FOR DURATION OF STUDY (STUDY DURATI, Route [Inhibitor]: ORAL, Species: MOUSE, Strain/Sex: 101/MALE, FEMALE, Target Tissue: Type of Lesion: SKIN: TUMOR (BENIGN, MALIGNANT), Dose [Carcinogen]: 0.2 ML OF 0.025% SOLUTION IN ACETONE 2/WK FOR 23 WK STARTING 4 WK AFTER STAR OF AGENT TREATMENT, Promoter: NONE USED): 21/30 (70%), 25/28 (89%), -27%, not calculated | tumour outcome (control, treated, inhibition, significance) (Carcinogen: BENZO[A]PYRENE, 50-32-8, Dose [Inhibitor]: 0.25 MG 2/WK FOR 24 WK STARTING 4 WK BEFORE START OF CARCINOGEN TREATMENT AN D CONTINUING FOR DURATION OF STUDY (STUDY D, Route [Inhibitor]: SUBCUTANEOUS, Species: MOUSE, Strain/Sex: 101/MALE, FEMALE, Target Tissue: Type of Lesion: SKIN: MALIGNANT TUMOR, Dose [Carcinogen]: 0.2 ML OF 0.25% 2/WK FOR 20 WK, Promoter: NONE USED): 12/18 (67%), 8/19 (42%), 37%, not calculated | tumour outcome (control, treated, inhibition, significance) (Carcinogen: BENZO[A]PYRENE, 50-32-8, Dose [Inhibitor]: 0.6% IN DIET DAILY STARTING 4 WK BEFORE START OF CARCINOGEN TREATMENT AND CONTINUING FOR DURATION OF STUDY (STUDY DURATI, Route [Inhibitor]: ORAL, Species: MOUSE, Strain/Sex: 101/MALE, FEMALE, Target Tissue: Type of Lesion: SKIN: TUMOR (BENIGN, MALIGNANT), Dose [Carcinogen]: 0.2 ML OF 0.025% SOLUTION IN ACETONE 2/WK FOR 23 WK, Promoter: NONE USED): 21/30 (70%), 32/37 (86%), -23%, not calculated | tumour outcome (control, treated, inhibition, significance) (Carcinogen: BENZO[A]PYRENE, 50-32-8, Dose [Inhibitor]: 2.5 MG 2/WK FOR 24 WK STARTING 4 WK BEFORE START OF CARCINOGEN TREATMENT AND CONTINUING FOR DURATION OF STUDY (STUDY DUR, Route [Inhibitor]: SUBCUTANEOUS, Species: MOUSE, Strain/Sex: 101/MALE, FEMALE, Target Tissue: Type of Lesion: SKIN: PAPILLOMA, Dose [Carcinogen]: 0.2 ML OF 0.25% 2/WK FOR 20 WK, Promoter: NONE USED): 13/18 (72%), 8/19 (42%), 42%, not calculated | tumour outcome (control, treated, inhibition, significance) (Carcinogen: UV IRRADIATION, Dose [Inhibitor]: 15 MG/ML DRINKING WATER DAILY FOR DURATION OF STUDY (STUDY DURATION: 11 MO), Route [Inhibitor]: ORAL, Species: MOUSE, Strain/Sex: HR-HAIRLESS/MALE, Target Tissue: Type of Lesion: SKIN: SQUAMOUS CELL CARCINOMA, Dose [Carcinogen]: 5 MIN/D 6 D/WK FOR DURATION OF STUDY, Promoter: NONE USED): 6/6 (100%), 6/6 (100%), 0%, not significant | tumour outcome (control, treated, inhibition, significance) (Carcinogen: UV IRRADIATION, Dose [Inhibitor]: 15 MG/ML PROPYLENE GLYCOL DAILY FOR DURATION OF STUDY (STUDY DURATION: 11 MO), Route [Inhibitor]: DERMAL, Species: MOUSE, Strain/Sex: HR-HAIRLESS/MALE, Target Tissue: Type of Lesion: SKIN: SQUAMOUS CELL CARCINOMA, Dose [Carcinogen]: 5 MIN/D 6 D/WK FOR DURATION OF STUDY, Promoter: NONE USED): 6/6 (100%), 7/7 (100%), 0%, not significant

O=C1O[C@@H]2[C@@H](O)CO[C@]2(O)[C@@]1(O)Cc1c[nH]c2ccccc12
tumour outcome (control, treated, inhibition, significance) (Carcinogen: 7,12-DIMETHYLBENZ[A]ANTHRACENE [57-97-6], Dose [Inhibitor]: 0, 16 MG IN 0.5 ML DMSO 1X/D FOR 3 D BEGINNING 2 D PRIOR TO CARCINOGEN DOSE (STUDY DURATION: 93 D), Route [Inhibitor]: GAVAGE, Species: RAT, Strain/Sex: SPRAGUE-DAWLEY/FEMALE, Target Tissue: Type of Lesion: MAMMARY GLAND: TUMOR, Dose [Carcinogen]: 15 MG IN 0.5 ML DMSO TOGETHER WITH THE LAST DOES OF INHIBITOR (STUDY DURATION: 93 D), Promoter: NONE): 63%, 60%, 5%, not significant | tumour outcome (control, treated, inhibition, significance) (Carcinogen: 7,12-DIMETHYLBENZ[A]ANTHRACENE [57-97-6], Dose [Inhibitor]: 0, 32.5 MG IN 0.5 ML DMSO 1X/D FOR 3 D BEGINNING 2 D PRIOR TO CARCINOGEN DOSE (STUDY DURATION: 93 D), Route [Inhibitor]: GAVAGE, Species: RAT, Strain/Sex: SPRAGUE-DAWLEY/FEMALE, Target Tissue: Type of Lesion: MAMMARY GLAND: TUMOR, Dose [Carcinogen]: 15 MG IN 0.5 ML DMSO TOGETHER WITH THE LAST DOES OF INHIBITOR (STUDY DURATION: 93 D), Promoter: NONE): 63%, 33%, 48%, p<0.05 | tumour outcome (control, treated, inhibition, significance) (Carcinogen: 7,12-DIMETHYLBENZ[A]ANTHRACENE [57-97-6], Dose [Inhibitor]: 0, 65 MG IN 0.5 ML DMSO 1X/D FOR 3 D BEGINNING 2 D PRIOR TO CARCINOGEN DOSE (STUDY DURATION: 93 D), Route [Inhibitor]: GAVAGE, Species: RAT, Strain/Sex: SPRAGUE-DAWLEY/FEMALE, Target Tissue: Type of Lesion: MAMMARY GLAND: TUMOR, Dose [Carcinogen]: 15 MG IN 0.5 ML DMSO TOGETHER WITH THE LAST DOES OF INHIBITOR (STUDY DURATION: 93 D), Promoter: NONE): 63%, 39%, 38%, p<0.05

CC(C)=CCC/C(C)=C/C=O
outcome (Carcinogen: DIMETHYLBENZANTHRACENE, 57-97-6, Dose [Inhibitor]: 0, 1 UMOL IN ACETONE 2/WK ADMINISTERED PRIOR TO EACH PROMOTER DOSE FOR 20 WK (STUDY DURATION: 21 WK), Route [Inhibitor]: DERMAL, Species: MOUSE, Strain/Sex: SKH/HR1/FEMALE, Target Tissue: Type of Lesion: SKIN: TUMOR, Dose [Carcinogen]: 0.1 UMOL IN 0.1 ML ACETONE ONCE, Promoter: TPA, 16561-29-8): 88%, 72%, 18%, p 0.05 at 10 wk of promotion: 96%, 96%, 0%, not calculated at 15

O=c1c(O)c(-c2cc(O)c(O)c(O)c2)oc2cc(O)cc(O)c12
tumour outcome (control, treated, inhibition, significance) (Carcinogen: 7,12-DIMETHYLBENZ[A]ANTHRACENE, 57-97-6, Dose [Inhibitor]: 100 UG IN 0.2 ML ACETONE ONCE 5 MIN BEFORE CARCINOGEN TREATMENT (STUDY DURATION: 31 WK), Route [Inhibitor]: DERMAL, Species: MOUSE, Strain/Sex: CD-1/FEMALE, Target Tissue: Type of Lesion: SKIN: PAPILLOMA, Dose [Carcinogen]: 10 NMOL IN 0.2 ML ACETONE ONCE, Promoter: 12-O-TETRADECANOYLPHORBOL-13-ACETATE, 16561-29-8): 87%, 85%, 2%, not calculated | tumour outcome (control, treated, inhibition, significance) (Carcinogen: (+/-)-7BETA,8ALPHA-DIHYDROXY-9ALPHA,10ALPHA-EPOXY-7,8,9,10-TETRAHYDROBENZO[A]PYR ENE, 58917-67-2, Dose [Inhibitor]: 0, 1400 NMOL (TOTAL DOSE) 10 MIN PRIOR TO CARCINOGEN DOSE INJECTED AS 1/7, 2/7, AND 4/7 OF THE TOTAL ON DAYS 1, 8, AND 1, Route [Inhibitor]: INTRAPERITONEAL, Species: MOUSE, Strain/Sex: ICR/MALE,FEMALE, Target Tissue: Type of Lesion: LUNG: TUMOR, Dose [Carcinogen]: 30 NMOL (TOTAL DOSE) INJECTED IN DOSES OF 1/7, 2/7, AND 4/7 ON DAYS 1,8, AND 15 OF LIFE, RESPECTIVELY, Promoter: NONE USED): 93%, 65%, 30%, p<0.05 | tumour outcome (control, treated, inhibition, significance) (Carcinogen: (+/-)-7BETA,8ALPHA-DIHYDROXY-9ALPHA,10ALPHA-EPOXY-7,8,9,10-TETRAHYDROBENZO[A]PYR ENE, 58917-67-2, Dose [Inhibitor]: 0, 1400 NMOL (TOTAL DOSE) APPLIED 10 MIN PRIOR TO CARCINOGEN DOSE INJECTED AS 1/7, 2/7, AND 4/7 OF THE TOTAL ON DAYS 1,, Route [Inhibitor]: INTRAPERITONEAL, Species: MOUSE, Strain/Sex: ICR/MALE,FEMALE, Target Tissue: Type of Lesion: LUNG: TUMOR, Dose [Carcinogen]: 15 NMOL (TOTAL DOSE) INJECTED IN DOSES OF 1/7, 2/7, AND 4/7 ON DAYS 1, 8, AND 15 OF LIFE, RESPECTIVELY, Promoter: NONE USED): 63%, 36%, 43%, p<0.05 | tumour outcome (control, treated, inhibition, significance) (Carcinogen: BENZO[A]PYRENE, 50-32-8, Dose [Inhibitor]: 0, 1400 NMOL (TOTAL DOSE) APPLIED 10 MIN PRIOR TO CARCINOGEN DOSE INJECTED AS 1/7, 2/7, AND 4/7 OF THE TOTAL ON DAYS 1,, Route [Inhibitor]: INTRAPERITONEAL, Species: MOUSE, Strain/Sex: ICR/MALE,FEMALE, Target Tissue: Type of Lesion: LUNG: TUMOR, Dose [Carcinogen]: 450 NMOL (TOTAL DOSE) INJECTED IN DOSES OF 1/7, 2/7, AND 4/7 ON DAYS 1, 8, AND 15 OF LIFE, RESPECTIVELY, Promoter: NONE USED): 73%, 79%, -8%, not significant
